From patent US12473582B2, “Method and agents for detecting luciferase activity” (LIGHT BIO, INC., priority 2015, dated 2025)

What was measured:
[1] = biological target: T1, cold extract from Neonothopanus nambi (Neonothopanus nambi, UniProt A0A3G9K5C8); assay: Bioluminescent test of hot-extract HPLC fractions with cold extract and NADPH; format: biochemical; settings: cold extract from N. nambi, NADPH; values normalised against optical density at 360 nm
T1 construct: an extract comprising the enzymes of the fungal bioluminescent system and free from low-molecular-weight components; from tissue; host or cells: Neonothopanus nambi mycelium, crude cold extract (30000 g supernatant of the homogenate)
T1 sequence (A0A3G9K5C8 whole entry): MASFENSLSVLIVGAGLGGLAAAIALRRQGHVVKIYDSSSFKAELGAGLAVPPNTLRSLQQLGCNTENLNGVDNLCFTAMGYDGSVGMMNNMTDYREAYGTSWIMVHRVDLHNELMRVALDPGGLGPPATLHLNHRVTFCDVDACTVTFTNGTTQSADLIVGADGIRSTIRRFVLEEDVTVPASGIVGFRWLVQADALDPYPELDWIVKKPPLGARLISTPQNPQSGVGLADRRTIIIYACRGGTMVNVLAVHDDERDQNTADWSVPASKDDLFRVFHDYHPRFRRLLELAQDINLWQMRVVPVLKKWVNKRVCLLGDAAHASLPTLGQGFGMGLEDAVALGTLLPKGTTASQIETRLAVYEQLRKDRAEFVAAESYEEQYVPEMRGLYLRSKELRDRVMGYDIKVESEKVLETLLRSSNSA
Protocol: The obtained extracts were tested in a bioluminescent test described by Oliveira and Stevani (Photochem. Photobiol. Sci., 2009, 8, 1416) using a cold extract from Neonothopanus nambi.
In order to obtain a cold extract, the mycelium was washed to get rid of culture medium, then, it was put into a 200-fold amount of distilled water for 15 hours at 26° C. Thereafter, the mycelium was separated from water by centrifugation, then, it was homogenized on ice in 10 volumes of 0.2 M phosphate buffer, pH 7.5 and sonicated on ice for 10 minutes using Ultrasonic disintegrator UD-20. The homogenate was centrifuged at 30000 g at […] for 20 minutes. The obtained cold extract was stored at −20° C.
500 μl of the following components were mixed for a bioluminescent test: 25 μL of cold extract, 2 μL of hot extract, 442 μL 0.2 M phosphate buffer, pH 7.5, 1 μL 1 M DTT and 10 μL 1% Triton X-100. The bioluminescent reaction was initiated in a Glomax 20/20 (Promega, USA) luminometer cuvette by adding 20 μL 20 mM NADPH. Luminescence was measured at 23±1° C.
The maximum luminescence of fractions 1-6 was 24000, 80, 6670, 40, 1300 and 1000 correspondingly (a signal-to-noise ratio of the luminometer, the values were normalised against optical density at 360 nm).

[2] = biological target: T2, luciferase and hispidin-3-hydroxylase (cold extract of N. nambi) (Neonothopanus nambi, UniProt A0A3G9K5C8); assay: Dependence of maximal bioluminescence (Imax) on reagent concentration in the reaction mixture; format: biochemical
T2 construct: an extract comprising the enzymes of the fungal bioluminescent system and free from low-molecular-weight components; from tissue; host or cells: Neonothopanus nambi mycelium, crude cold extract (30000 g supernatant of the homogenate)
T2 sequence (A0A3G9K5C8 whole entry): as above
Protocol: The concentrated hispidin solution was used to produce dilutions of 1/50, 1/500, 1/5000, 1/50000 in an aqueous solution with 0.1% Triton X-100 and 0.1% formic acid.
The reaction mixture in the bioluminometer cuvette comprised: 100 μL 0.1 M phosphate buffer, pH 7.5, containing 0.1 mM DTT, 4 μL of the cold extract of N. nambi, 1-5 μL of hispidin dilutions. The bioluminescent reaction was activated by adding 4 μL 10 mM NADPH. Bioluminescence was measured at 25° C.
The reaction mixture in the bioluminometer cuvette comprised: 100 μL 0.1 M phosphate buffer, pH 7.5, comprising 0.1 mM DTT, 4 μL of the cold extract of N. nambi, 4 μL 64 μM hispidin solution and various amounts of Triton X-100 detergent. The bioluminescent reaction was activated by adding 4 μL 10 mM NADPH. […] The optimal detergent concentration in the reaction mixture was determined as 0.015 to 0.03%. The maximum detergent concentration at which bioluminescence was observed was 0.5%.
The reaction mixture in the bioluminometer cuvette comprised: 100 μL 0.1 M phosphate buffer, pH 7.5, comprising 0.1 mM DTT, 4 μL of the cold extract of N. nambi, 4 μL […] hispidin solution. The bioluminescent reaction was activated by adding various amounts of NADPH. […] The minimum NADPH concentration which provided detectable bioluminescence was 20 μM.
The reaction mixture in the bioluminometer cuvette comprised: 100 μL 0.1 M phosphate buffer, pH 7.5, comprising various concentrations of DTT, 4 μL of the cold extract of N. nambi, 4 μL 64 μM hispidin solution. The bioluminescent reaction was activated by adding 4 μL 10 mM NADPH. […] The optimal DTT concentration in the reaction mixture was 0.5 to 3 mM. The maximum DTT concentration which provided bioluminescence was 10 mM.

[3] = tested on: luciferase and hispidin-3-hydroxylase; assay: Detection of luciferase and hispidin-3-hydroxylase in fungal cold extracts with hispidin and NAD(P)H; format: biochemical
Protocol: Commercially available hispidin (Sigma-Aldrich, USA) was used for detecting luciferase and hispidin-3-hydroxylase in the cold extracts obtained from the mycelia of Neonothopanus nambi, Mycena citricolor, Panellus stipticus, and Armillaria borealis as described in Example 1.
Hispidin was dissolved in DMSO to a final concentration of 8 mg/ml (32 mM). Then, the obtained concentrated solution was diluted 500-fold by aqueous solution containing 0.1% Triton X-100 and 0.1% formic acid. Hispidin concentration in the obtained working solution was 64 μM.
The reaction mixture in Glomax 20/20 cuvette (Promega, USA) comprised: 100 μL 0.2 M phosphate buffer, pH 7.5, comprising 0.1 mM DTT and 0.1 mM EDTA, 1-5 μL of fungal extract, 4 μL 64 μM hispidin solution. The luminescent reaction was initiated by adding 4 μL 10 mM NADPH.
In a different experiment, the same samples were tested for the presence of luciferase and hispidin-3-hydroxylase activities as described above with the exception that NADH was used (instead of NADPH). In this case, luminescence was 2-3 times lower than when using NADPH.

[4] = Stability of 3-hydroxyhispidin; format: physicochemical
[5] = Solubility of 3-hydroxyhispidin; format: physicochemical
luciferase = assay: Detection of luciferase in microsomal fractions of cold extracts with 3-hydroxyhispidin; format: biochemical; settings: aliquots with 0.006 ng and 0.16 ng of luciferin; microsomal fractions of four fungi
Protocol: 3-hydroxyhispidin was obtained as described in Example 3. The microsomal fractions of the cold extracts of Neonothopanus nambi, Mycena citricolor, Panellus stipticus and Armillaria borealis were used as biological samples. The cold extracts were obtained as described in Example 2. The microsomal fractions were obtained as described in Example 3.
10 μg of 3-hydroxyhispidin were dissolved in 1 mL 50% water-acetonitrile mixture containing 0.1% formic acid.
During the experiment, in each case, the background luminescence of the microsomal fraction was measured in the first place, and then, at 0.7 and 1.55 minutes, 3-hydroxyhispidin solution aliquots were added, which contained 0.006 ng and 0.16 ng of luciferin, correspondingly.

fungal bioluminescence = settings: isolated from Pleurotus japonicus; cited from earlier work
[6] = hispidin, NADPH, cold extract of N. nambi
[7] = 0.1 M phosphate buffer pH 7.5, 0.1 mM DTT, NADPH, 25° C.

## 3.3-bishispidinyl [Fraction 2]
[1]
  maximum luminescence: 80 signal-to-noise ratio of the luminometer

## O[C@H](CS)[C@H](O)CS (racemic) [DTT, dithiothreitol, reference compound]
[2]; [6]
  maximum DTT concentration which provided bioluminescence: 10 mM

## O=c1cc(O)cc(/C=C/c2ccc(O)c(O)c2)o1 (single isomer, unassigned) [Fraction 1, (E)-6-(3,4-dihydroxystyryl)-4-hydroxy-2H-pyran-2-one]
[2]; [7]
  hispidin concentration at which detectable luminescence was observed: ≥ 0.002 µM
  optimal hispidin concentration in the reaction mixture: 2.5 µM
[2]; probably substrate inhibition
  hispidin concentration at which inhibition of the luminescent reaction was observed: more than 5 μM
[1]
  maximum luminescence: 24000 signal-to-noise ratio of the luminometer
[3]; 4 μL 64 μM hispidin, 4 μL 10 mM NADPH, cold extracts of four fungi
  luminescence of cold extracts after adding hispidin and NADPH: Luminescence was detected in all cases

## O=c1cc(O)cc(/C=C\c2ccc(O)c(O)c2)o1 (single isomer, unassigned) [Fraction 3, (Z)-6-(3,4-dihydroxystyryl)-4-hydroxy-2H-pyran-2-one]
[1]
  maximum luminescence: 6670 signal-to-noise ratio of the luminometer

## O=c1cc(O)cc(/C=C/c2ccc(O)cc2)o1 (single isomer, unassigned) [Fraction 5, (E)-4-hydroxy-6-(4-hydroxystyryl)-2H-pyran-2-one]
[1]
  maximum luminescence: 1300 signal-to-noise ratio of the luminometer
[3]; bisnoryangonin added instead of hispidin
  maximum intensity of sample luminescence, times lower as compared to using hispidin: approximately 10 times

## O=c1cc(O)cc(/C=C\c2ccc(O)cc2)o1 (single isomer, unassigned) [Fraction 6, (Z)-4-hydroxy-6-(4-hydroxystyryl)-2H-pyran-2-one]
[1]
  maximum luminescence: 1000 signal-to-noise ratio of the luminometer

## O=c1oc(/C=C/c2ccc(O)c(O)c2)cc(O)c1O [3-hydroxyhispidin, (E)-6-(3,4-dihydroxystyryl)-3,4-dihydroxy-2H-pyran-2-one]
[4]; lyophilized, −20° C., often no less than 60 days, normally no less than a year
  storage time with no activity loss: no less than 30 days
[4]; water solution
  thermal stability: can sustain short-term boiling
[4]; water-acetonitrile mixture with formic acid, final concentration 0.1%
  stability during chromatography: shows stability
[5]; DMSO, acetonitrile, acetone, etc.
  solubility in aprotic solvents: readily soluble
[5]; water
  solubility in water: moderately soluble
luciferase
  luminescence of microsomal fractions after adding 3-hydroxyhispidin: luminescence was detected

## O=c1cc(O)cc(C=Cc2cc(O)c(O)cc2-c2c(O)cc(C=Cc3ccc(O)cc3)oc2=O)o1 [Fraction 4, 3-bisnoryangonyl-14-hispidin]
[1]
  maximum luminescence: 40 signal-to-noise ratio of the luminometer

## CC1=C2C(=C[C@@](C)(CO)[C@@H]2O)C(=O)[C@](C)(O)C12CC2 [illudin S]
Fungal bioluminescence
  bioluminescent activity: did not show bioluminescent activity

## Cc1cc2nc3c(=O)[nH]c(=O)nc-3n(C[C@H](O)[C@H](O)[C@H](O)COC3OC(CO)C(O)C3O)c2cc1C (some centres unmarked) [lampteroflavin]
Fungal bioluminescence
  bioluminescent activity: did not show bioluminescent activity

## Cc1cc2nc3c(=O)[nH]c(=O)nc-3n(C[C@H](O)[C@H](O)[C@H](O)CO)c2cc1C [riboflavin]
Fungal bioluminescence
  bioluminescent activity: did not show bioluminescent activity

## Triton X-100 [reference compound]
[2]; [6]
  maximum detergent concentration at which bioluminescence was observed: 0.5%

## nicotinamide adenine dinucleotide phosphate [NADPH, reference compound]
[2]; hispidin, cold extract of N. nambi, pH 7.5
  minimum NADPH concentration which provided detectable bioluminescence: 20 µM
